Patent US20260297042A1, “BIARYLAMIDE DERIVATIVES AND THEIR USE AS PKMYT1 INHIBITORS” (CANCER RESEARCH TECHNOLOGY LIMITED, priority 2023, published 2026)
pIC50: −log10 of the molar value.

Assays:
Human PKMYT1 = molecular target: T1, Human PKMYT1 (Homo sapiens, UniProt Q99640); test: PKMYT1 biochemical ADP-Glo enzymatic assay; conditions: ADP-Glo
T1 construct: Human PKMYT1 75-362 was cloned as a TEV cleavable 6xHis fusion; 6xHis (TEV cleavable) (cleaved yes); made in house; host or cells: bacterial cells
T1 sequence (Q99640 75-362): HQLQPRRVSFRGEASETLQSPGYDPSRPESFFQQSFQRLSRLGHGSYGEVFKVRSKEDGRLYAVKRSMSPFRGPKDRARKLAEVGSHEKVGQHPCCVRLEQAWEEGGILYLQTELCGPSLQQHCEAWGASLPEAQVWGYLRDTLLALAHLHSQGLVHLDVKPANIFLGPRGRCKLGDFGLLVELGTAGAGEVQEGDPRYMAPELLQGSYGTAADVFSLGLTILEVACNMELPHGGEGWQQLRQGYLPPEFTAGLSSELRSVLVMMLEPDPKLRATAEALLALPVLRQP
Outline: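 IC50 derived from luminescence (ADP-Glo Max) after PKMYT1 kinase domain, 15 nM, turned over 500 µM ATP for 60 min at 26 °C. Buffer contained 10 mM MgCl2, 1 mM EGTA and 0.01% Brij-35 at pH 7.5.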

WEE1 = molecular target: T2, WEE1 (Homo sapiens, UniProt P30291); test: Selectivity versus WEE1 assay (ADP-Glo enzymatic assay); type: biochemical; conditions: for pIC50: ADP-Glo; for PKMYT1 vs. WEE1 selectivity: fold difference in selectivity for PKMYT1 over WEE1
T2 construct: purchased Thermo Fisher PR7373A
Outline: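 Inhibition is measured as reduced ADP production, detected by luminescence with ADP-Glo, after enzyme (15 nM) and 30 µM ATP react for 60 min at 26° C in 1% DMSO-containing HEPES buffer, pH 7.5. Data are accepted only if replicate IC50s fall within 3-fold and r2 exceeds 0.9.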

OVCAR 3 cells = test: Cancer cell line proliferation assay, ATP-based cell viability (Cell Titre Glow), OVCAR 3 (CCNE1-amplified); conditions: KYSE30 (normal CCNE1) GI50 vs. OVCAR 3 (CCNE1-amplified) GI50
Experimental: (§1) Cancer cell lines with either normal (KYSE-30) or amplified CCNE1 expression (OVCAR 3 —ovarian cancer) were evaluated for their sensitivity to PKMYT1 inhibitors using Cell Titre Glow assay (Promega G7573) as endpoint to assess cell proliferation. The luminescence signal was read on a PHERAStar FS microplate reader (BMG Labtech). Data analysis was performed using Microsoft Excel® and Gl50 (concentration that achieves 50% cell growth proliferation inhibition) estimates generated with GraphPad Prism v9.

KYSE-30 cells = test: Cancer cell line proliferation assay, ATP-based cell viability (Cell Titre Glow), KYSE-30 (normal CCNE1); conditions: Homo sapiens, KYSE-30 cells (normal CCNE1), concentration that achieves 50% cell growth proliferation inhibition, read-out: KYSE30 Gl50
Experimental: as §1

[1] = 15 nM PKMYT1 kinase domain, 500 µM ATP, 60 minutes at 26° C., banded
[2] = 15 nM WEE1, 60 minutes at 26° C., banded
[3] = banded, ">N" = at least in this band but could be higher

T2 sequence (P30291 whole entry): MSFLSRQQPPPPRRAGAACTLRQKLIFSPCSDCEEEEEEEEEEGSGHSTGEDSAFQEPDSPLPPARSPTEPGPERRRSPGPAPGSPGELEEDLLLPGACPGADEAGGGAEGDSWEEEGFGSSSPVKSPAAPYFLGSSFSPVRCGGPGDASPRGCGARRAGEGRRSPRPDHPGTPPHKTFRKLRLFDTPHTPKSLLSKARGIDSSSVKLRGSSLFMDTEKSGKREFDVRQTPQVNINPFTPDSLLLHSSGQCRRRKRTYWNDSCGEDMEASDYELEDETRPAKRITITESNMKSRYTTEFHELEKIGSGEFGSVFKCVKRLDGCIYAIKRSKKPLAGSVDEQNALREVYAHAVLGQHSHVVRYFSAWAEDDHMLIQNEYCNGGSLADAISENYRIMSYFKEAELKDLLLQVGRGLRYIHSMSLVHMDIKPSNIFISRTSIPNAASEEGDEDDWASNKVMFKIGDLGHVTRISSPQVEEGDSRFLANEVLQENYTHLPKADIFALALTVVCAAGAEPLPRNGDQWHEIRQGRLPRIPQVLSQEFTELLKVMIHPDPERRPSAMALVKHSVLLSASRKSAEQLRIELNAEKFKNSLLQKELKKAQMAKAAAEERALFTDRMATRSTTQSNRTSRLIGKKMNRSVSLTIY

pIC50 (Human PKMYT1; [1])	pIC50 (WEE1; [2])	PKMYT1 vs. WEE1 selectivity (WEE1; [3])	pIC50 (Human PKMYT1; PKMYT1 kinase domain 15 nM, banded values)	pIC50 (WEE1; WEE1 15 nM, banded values)	PKMYT1 vs. WEE1 selectivity (WEE1; banded)	SMILES	Selectivity ratio KYSE30 Gl50 vs. OVCAR3 Gl50 (OVCAR 3 cells)	GI50 (KYSE-30 cells)
> 7.30	< 4.96	Y (1000-5000 fold)				COc1ccc(NC(=O)C(C)(C)C)nc1Nc1ncc(C(=O)Nc2c(C)ccc(O)c2C)s1.Cl [BAA-330, N-(3-Hydroxy-2.6-dimethylphenyl)-2-((3-methoxy-6-pivalamidopyridin-2-yl)amino)thiazole-5-carboxamide hydrochloride]	Y (>20 fold)	0.5 to 5 µM
> 7.30	< 4.96	Y (1000-5000 fold)				Cc1ccc(NS(=O)(=O)C(C)(C)C)nc1Nc1ncc(C(=O)Nc2c(C)ccc(O)c2C)s1.Cl [BAA-335, 2-((6-((1,1-dimethylethyl)sulfonamido)-3-methylpyridin-2-yl)amino)-N-(3-hydroxy-2,6-dimethylphenyl)thiazole-5-carboxamide hydrochloride]	Y (>20 fold)	0.5 to 5 µM
6.00 to 7.30	< 4.96	X (100-<1000 fold)				Cc1ccc(NC(=O)NC(C)(C)C)nc1Nc1ncc(C(=O)Nc2c(C)ccc(O)c2C)s1.Cl [BAA-336, 2-((6-(3-(tert-butyl)ureido)-3-methylpyridin-2-yl)amino)-N-(3-hydroxy-2,6-dimethylphenyl)thiazole-5-carboxamide hydrochloride]	Y (>20 fold)	> 5 µM
> 7.30	< 4.96	Y (1000-5000 fold)				Cc1ccc(O)c(C)c1NC(=O)c1cnc(Nc2cccc(NC(=O)C(C)(C)C)n2)s1 [BAA-339, N-(3-Hydroxy-2.6-dimethylphenyl)-2-((6-pivalamidopyridin-2-yl)amino)thiazole-5-carboxamide]	Y (>20 fold)	0.5 to 5 µM
> 7.30	4.96 to 6.00	X (100-<1000 fold)				C=CC(=O)Nc1ccc(C)c(Nc2ncc(C(=O)Nc3c(C)ccc(O)c3C)s2)n1 [BAA-341, 2-((6-Acrylamido-3-methylpyridin-2-yl)amino)-N-(3-hydroxy-2,6-dimethylphenyl)thiazole-5-carboxamide]	X (3-20 fold)	0.5 to 5 µM
> 7.30	6.00 to 7.30	W (10-<100 fold)				Cc1cn(-c2ccncc2)nc1Nc1ncc(C(=O)Nc2c(C)ccc(O)c2C)s1 [BAA-372, N-(3-hydroxy-2,6-dimethylphenyl)-2-((4-methyl-1-(pyridin-4-yl)-1H-pyrazol-3-yl)amino)thiazole-5-carboxamide]	Y (>20 fold)	> 5 µM
6.00 to 7.30	< 4.96	X (100-<1000 fold)				Cc1cn(-c2ccc(Cl)cn2)nc1Nc1ncc(C(=O)Nc2c(C)ccc(O)c2C)s1 [BAA-376, 2-((1-(5-Chloropyridin-2-yl)-4-methyl-1H-pyrazol-3-yl)amino)-N-(3-hydroxy-2,6-dimethylphenyl)thiazole-5-carboxamide]	Y (>20 fold)	0.5 to 5 µM
> 7.30	4.96 to 6.00	X (100-<1000 fold)				Cc1cn(-c2scnc2C)nc1Nc1ncc(C(=O)Nc2c(C)ccc(O)c2C)s1 [BAA-386, N-(3-hydroxy-2,6-dimethylphenyl)-2-((4-methyl-1-(4-methylthiazol-5-yl)-1H-pyrazol-3-yl)amino)thiazole-5-carboxamide]	Y (>20 fold)	> 5 µM
> 7.30	4.96 to 6.00	X (100-<1000 fold)				Cc1cn(-c2cn(C)nc2C)nc1Nc1ncc(C(=O)Nc2c(C)ccc(O)c2C)s1 [BAA-392, N-(3-hydroxy-2,6-dimethylphenyl)-2-((1′, 3′,4-trimethyl-1′H-[1,4′-bipyrazol]-3-yl)amino)thiazole-5-carboxamide]	Y (>20 fold)	> 5 µM

Second part, the molecule before the results:

SMILES	pIC50 (Human PKMYT1; [1])	pIC50 (WEE1; [2])	PKMYT1 vs. WEE1 selectivity (WEE1; [3])	pIC50 (Human PKMYT1; PKMYT1 kinase domain 15 nM, banded values)	pIC50 (WEE1; WEE1 15 nM, banded values)	PKMYT1 vs. WEE1 selectivity (WEE1; banded)	Selectivity ratio KYSE30 Gl50 vs. OVCAR3 Gl50 (OVCAR 3 cells)	GI50 (KYSE-30 cells)
Cc1cn(-c2ccc(C(F)(F)F)nc2)nc1Nc1ncc(C(=O)Nc2c(C)ccc(O)c2C)s1 [BAA-367, N-(3-hydroxy-2,6-dimethylphenyl)-2-((4-methyl-1-(6-(trifluoromethyl)pyridin-3-yl)-1H-pyrazol-3-yl)amino)thiazole-5-carboxamide]	6.00 to 7.30	< 4.96	X (100-<1000 fold)				Y (>20 fold)	> 5 µM
Cc1cn(-c2cccc(F)c2)nc1Nc1ncc(C(=O)Nc2c(C)ccc(O)c2C)s1 [BAA-368, 2-((1-(3-fluorophenyl)-4-methyl-1H-pyrazol-3-yl)amino)-N-(3-hydroxy-2,6-dimethylphenyl)thiazole-5-carboxamide]	> 7.30	< 4.96	Y (1000-5000 fold)				Y (>20 fold)	> 5 µM
CCOc1ccc(-n2cc(C)c(Nc3ncc(C(=O)Nc4c(C)ccc(O)c4C)s3)n2)cn1 [BAA-369, 2-((1-(6-ethoxypyridin-3-yl)-4-methyl-1H-pyrazol-3-yl)amino)-N-(3-hydroxy-2,6-dimethylphenyl)thiazole-5-carboxamide]	6.00 to 7.30	< 4.96	X (100-<1000 fold)				Y (>20 fold)	> 5 µM
Cc1cn(-c2cccc(C(F)(F)F)c2)nc1Nc1ncc(C(=O)Nc2c(C)ccc(O)c2C)s1 [BAA-370, N-(3-hydroxy-2,6-dimethylphenyl)-2-((4-methyl-1-(3-(trifluoromethyl)phenyl)-1H-pyrazol-3-yl)amino)thiazole-5-carboxamide]	> 7.30	< 4.96	X (100-<1000 fold)				X (3-20 fold)	0.5 to 5 µM
Cc1cn(-c2cccnc2)nc1Nc1ncc(C(=O)Nc2c(C)ccc(O)c2C)s1 [BAA-371, N-(3-hydroxy-2,6-dimethylphenyl)-2-((4-methyl-1-(pyridin-3-yl)-1H-pyrazol-3-yl)amino)thiazole-5-carboxamide]	> 7.30	4.96 to 6.00	X (100-<1000 fold)				Y (>20 fold)	> 5 µM
Cc1cn(-c2cc(Cl)cnc2F)nc1Nc1ncc(C(=O)Nc2c(C)ccc(O)c2C)s1 [BAA-377, 2-((1-(5-chloro-2-fluoropyridin-3-yl)-4-methyl-1H-pyrazol-3-yl)amino)-N-(3-hydroxy-2,6-dimethylphenyl)thiazole-5-carboxamide]	6.00 to 7.30	4.96 to 6.00	W (10-<100 fold)				X (3-20 fold)	0.5 to 5 µM
Cc1cn(-c2cnc(Cl)cc2Br)nc1Nc1ncc(C(=O)Nc2c(C)ccc(O)c2C)s1 [BAA-378]	6.00 to 7.30	4.96 to 6.00	W (10-<100 fold)				X (3-20 fold)	0.5 to 5 µM
Cc1ccc(O)c(C)c1NC(=O)c1cnc(Nc2nn(-c3ccccn3)cc2Cl)s1 [BAA-383, 2-((4-chloro-1-(pyridin-2-yl)-1H-pyrazol-3-yl)amino)-N-(3-hydroxy-2,6-dimethylphenyl) thiazole-5-carboxamide]	> 7.30	< 4.96	Y (1000-5000 fold)				X (3-20 fold)	0.5 to 5 µM
Cc1cn(-c2ncc(C(=O)Nc3c(C)ccc(O)c3C)s2)nc1Nc1ncc(C(=O)Nc2c(C)ccc(O)c2C)s1 [BAA-393, N-(3-hydroxy-2,6-dimethylphenyl)-2-((1-(5-((3-hydroxy-2,6-dimethylphenyl)carbamoyl)thiazol-2-yl)-4-methyl-1H-pyrazol-3-yl)amino)thiazole-5-carboxamide]				6.00 to 7.30	< 4.96	X (100-<1000 fold)	X (3-20 fold)	0.5 to 5 µM
